Reference: patent publication US11208446B2, “Agents and methods for treating CBP-dependent cancers” (priority 2016, dated 2021)
“Also recorded” adds a separate entry of the source. *: point of attachment. Biotin = O=C1N[C@H]2[C@H](CS[C@H]2CCCCC(=O)*)N1

Columns and labels:
[1] = molecular target: T1, CBP in MV411 human AML cells (Homo sapiens, UniProt Q92793); experiment: Streptavidin affinity purification (pull-down) of CBP with biotinylated peptides, Western blot; assay type: binding; conditions: AML cell lysates, competition with non-biotinylated peptide
T1 construct: endogenous in cells; host or cells: MV411 human AML cells (lysate)
T1 sequence (Q92793 whole entry): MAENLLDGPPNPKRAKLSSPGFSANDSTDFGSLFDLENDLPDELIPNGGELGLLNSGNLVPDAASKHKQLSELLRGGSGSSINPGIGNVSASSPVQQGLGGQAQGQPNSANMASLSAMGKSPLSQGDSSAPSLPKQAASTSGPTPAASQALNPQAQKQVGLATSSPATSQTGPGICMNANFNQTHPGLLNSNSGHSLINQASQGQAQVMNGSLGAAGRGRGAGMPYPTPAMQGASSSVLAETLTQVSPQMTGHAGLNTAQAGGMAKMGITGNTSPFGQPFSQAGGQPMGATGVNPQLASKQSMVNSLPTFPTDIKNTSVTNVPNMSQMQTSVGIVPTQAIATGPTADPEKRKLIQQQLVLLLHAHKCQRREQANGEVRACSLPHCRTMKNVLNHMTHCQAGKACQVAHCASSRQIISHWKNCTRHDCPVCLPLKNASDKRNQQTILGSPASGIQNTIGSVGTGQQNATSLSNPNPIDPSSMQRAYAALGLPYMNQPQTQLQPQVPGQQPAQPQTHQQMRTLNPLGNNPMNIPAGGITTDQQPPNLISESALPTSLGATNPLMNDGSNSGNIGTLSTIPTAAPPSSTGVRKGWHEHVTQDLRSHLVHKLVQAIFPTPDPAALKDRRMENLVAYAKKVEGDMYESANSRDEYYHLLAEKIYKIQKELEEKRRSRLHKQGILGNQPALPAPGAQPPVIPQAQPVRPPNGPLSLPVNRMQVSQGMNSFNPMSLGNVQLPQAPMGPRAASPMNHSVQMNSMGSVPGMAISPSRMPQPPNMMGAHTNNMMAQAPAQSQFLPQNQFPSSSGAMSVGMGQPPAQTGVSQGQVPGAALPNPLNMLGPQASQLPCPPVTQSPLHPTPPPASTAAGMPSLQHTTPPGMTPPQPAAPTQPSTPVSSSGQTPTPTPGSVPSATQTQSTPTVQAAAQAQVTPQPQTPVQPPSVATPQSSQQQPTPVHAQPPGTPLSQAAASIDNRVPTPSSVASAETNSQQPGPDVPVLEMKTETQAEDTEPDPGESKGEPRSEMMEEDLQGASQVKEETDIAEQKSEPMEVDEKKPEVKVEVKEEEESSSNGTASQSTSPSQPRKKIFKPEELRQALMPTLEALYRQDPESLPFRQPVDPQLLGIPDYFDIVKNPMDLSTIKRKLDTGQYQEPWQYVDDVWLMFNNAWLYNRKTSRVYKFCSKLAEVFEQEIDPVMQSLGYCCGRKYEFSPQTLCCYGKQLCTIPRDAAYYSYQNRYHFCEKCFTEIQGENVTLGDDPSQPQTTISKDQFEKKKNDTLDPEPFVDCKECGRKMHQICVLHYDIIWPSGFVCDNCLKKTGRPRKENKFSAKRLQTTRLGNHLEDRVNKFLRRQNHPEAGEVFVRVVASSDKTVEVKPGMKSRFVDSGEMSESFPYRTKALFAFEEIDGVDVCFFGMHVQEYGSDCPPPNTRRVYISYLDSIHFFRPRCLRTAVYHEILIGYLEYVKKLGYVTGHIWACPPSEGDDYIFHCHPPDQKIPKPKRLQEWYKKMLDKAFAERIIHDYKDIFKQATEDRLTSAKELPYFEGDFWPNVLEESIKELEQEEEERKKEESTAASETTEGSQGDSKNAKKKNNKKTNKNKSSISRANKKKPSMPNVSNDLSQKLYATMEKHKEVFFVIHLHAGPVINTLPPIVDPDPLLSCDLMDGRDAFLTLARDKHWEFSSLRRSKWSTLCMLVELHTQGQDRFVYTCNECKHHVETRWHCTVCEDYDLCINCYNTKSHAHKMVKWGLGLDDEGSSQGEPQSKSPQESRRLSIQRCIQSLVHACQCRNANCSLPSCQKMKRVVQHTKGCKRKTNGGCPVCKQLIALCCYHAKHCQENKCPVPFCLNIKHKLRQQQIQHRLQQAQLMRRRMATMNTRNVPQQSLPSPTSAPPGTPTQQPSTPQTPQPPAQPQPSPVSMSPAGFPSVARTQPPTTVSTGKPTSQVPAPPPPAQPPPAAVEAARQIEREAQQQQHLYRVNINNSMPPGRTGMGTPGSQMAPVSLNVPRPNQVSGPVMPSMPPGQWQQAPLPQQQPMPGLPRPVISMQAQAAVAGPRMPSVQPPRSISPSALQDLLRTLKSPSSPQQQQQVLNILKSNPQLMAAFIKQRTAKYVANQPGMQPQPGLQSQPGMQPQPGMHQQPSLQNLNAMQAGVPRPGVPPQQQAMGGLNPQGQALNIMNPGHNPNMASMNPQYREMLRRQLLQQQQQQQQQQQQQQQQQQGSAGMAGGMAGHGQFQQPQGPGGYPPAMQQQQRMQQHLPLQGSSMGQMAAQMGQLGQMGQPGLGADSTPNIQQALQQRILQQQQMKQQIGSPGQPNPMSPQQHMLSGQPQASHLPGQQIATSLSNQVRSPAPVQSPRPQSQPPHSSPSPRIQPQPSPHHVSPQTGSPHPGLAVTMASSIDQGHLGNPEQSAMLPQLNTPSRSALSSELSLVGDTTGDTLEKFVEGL
Experimental: Western blot analysis. Cells were lysed in RIPA buffer (Thermo Fisher) supplemented with a protease inhibitor mix comprised of AEBSF (0.5 mM concentration, Santa Cruz, SC-202041B), Bestatin (0.01 mM concentration, Fisher/Alfa Aesar, J61106-MD), Leupeptin (0.1 mM concentration, Santa Cruz, SC-295358B), and Pepstatin (0.001 mM concentration, Santa Cruz, SC-45036A). Lysates were mechanically disrupted using Covaris S220 adaptive focused sonicator, according to the manufacturer's instructions (Covaris, Woburn, Calif.). Lysates were cleared by centrifugation for 15 min at 18,000×g and clarified lysates were quantified using the bicinchoninic acid assay (Pierce). Clarified lysates (20 μg of protein) were resolved using sodium dodecyl sulfate-polyacrylamide gel electrophoresis, and electroeluted using the Immobilon FL PVDF membranes (Millipore, Billerica, Mass., USA). Membranes were blocked using the Odyssey Blocking buffer (Li-Cor, Lincoln, Nebr., USA). […] Blotted membranes were visualized using secondary antibodies conjugated to IRDye 800CW or IRDye 680RD (Goat anti-rabbit, 1:15,000, and goat anti-mouse, 1:15,000) and the Odyssey CLx fluorescence scanner, according to manufacturer's instructions (Li-Cor, Lincoln, Nebr., USA). […]

purified CBP-KIX domain = molecular target: T2, purified CBP-KIX domain (Homo sapiens, UniProt Q92793); experiment: Microscale thermopheresis (MST) binding of FITC-conjugated peptides to purified KIX; conditions: FITC-conjugated peptide at fixed concentration, KIX 0.015 to 50 μM, n=3
T2 construct: Expression and purification of recombinant CBP KIX domain; GST (N, cleaved yes); made in house; host or cells: E. coli BL21(DE3)
T2 sequence (Q92793 587-666 limits assumed): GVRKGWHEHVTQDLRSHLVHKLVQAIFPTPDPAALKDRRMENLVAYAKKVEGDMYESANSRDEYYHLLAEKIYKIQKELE
Experimental: Expression and purification of recombinant CBP KIX domain. BL21(DE3) cells (Invitrogen) transformed with pGEX-KIX plasmid were induced at 37° C. with isopropyl β-D-1-thiogalactopyranoside for 3 hours. Cells were lysed in 50 mM Tris-HCl pH 7.3, 150 mM NaCl, 0.1% TWEEN-20, 1 mM DTT, 5 mM EDTA, supplemented with protease inhibitors described above and sonicated for ten minutes (15 sec on, 15 sec off, 40% amplitude) using the Misonix probe sonicator (Qsonica, Newtown, Conn.). Lysate was cleared by centrifugation for 1 h at 21,800×g at 4° C. Cleared lysate was incubated with 4 mL glutathione agarose resin slurry (GoldBio) for 1 h at 4° C. to capture GST-KIX. Resin was washed four times with 50 mM Tris-HCl pH 7.4, 150 mM NaCl. KIX domain was cleaved from GST by incubation of resin-bound GST-KIX with 160 U thrombin (GE Healthcare) overnight at room temperature. Resin was centrifuged at 500×g for 5 min. Supernatant containing cleaved KIX was collected and dialyzed at 4° C. against 50 mM MOPS pH 6.5, 50 mM NaCl, 10% glycerol, 1 μM tris-2-carboxyethylphosphine. KIX was purified using a linear gradient of 50 mM to 1 M NaCl by cation exchange chromatography using MonoS 5/50 GL column (GE Healthcare). Fractions containing purified KIX were dialyzed against 50 mM potassium phosphate pH 5.5, 150 mM NaCl, 10 μM tris-2-carboxyethylphosphine, 30% glycerol, and stored at −80° C. […]

MOLM13 cells = experiment: Confocal microscopy of intranuclear penetration of FITC-labelled peptide; assay type: cell-based; conditions: 50 nM peptide, 20 minutes, human AML cell line
Experimental: Confocal microscopy. Live confocal imaging was performed using the Leica SP8 confocal microscope and 63× objective with 1 μm z-stack images. Cells were applied to a poly-L-lysine coated chambered Nunc Lab-tek II slide and incubated for 2 hours at 37° C. Prior to imaging, FITC-conjugated peptides were added to cell suspensions at a concentration of 50 nM. Cells were counter-stained using Hoechst 33342 and Mitotracker Red CMX ROS (MProbes) for 10 minutes at a final dilution of 1:10,000 prior to imaging.

[2] = tested on: MOLM13, MV411, ML2, and HL60 cell lines; experiment: Cell viability, live cell count by Trypan blue exclusion; assay type: cell-based, human; conditions: 10 μM and 20 μM every 48 hours for 6 days
Experimental: Cell culture. The human AML lines MV411, MOLM13, ML2, and HL60 were obtained from the American Type Culture Collection (ATCC, Manassas, Va., USA). Umbilical cord blood was obtained from the New York Blood Center. The identity of all cell lines was verified by STR analysis (Genetica DNA Laboratories, Burlington, N.C., USA) and absence of Mycoplasma sp. contamination was determined using Lonza MycoAlert (Lonza Walkersville, Inc., Walkersville, Md., USA). Cell lines were cultured in 5% CO2 in a humidified atmosphere at 37° C. in RPMI medium supplemented with 10% fetal bovine serum (FBS) and antibiotics (100 U/ml penicillin and 100 μg/ml streptomycin). Cell viability analysis. Cells were resuspended and plated at a concentration of 2×10^5 cells in 200 μL in 96-well tissue culture plates. Media with peptides was replaced every 48 hours. To assess the number of viable cells, cells were resuspended in PBS and 10 μL mixed in a 1:1 ratio with 0.4% Trypan Blue (Thermo Fisher) and counted using a hematocytometer (Hausser Scientific, Horsham, Pa., USA). To assess viability using an ATP-based assay, cell viability was assessed using the CellTiter-Glo Luminescent Viability assay, according to the manufacturer's instructions (Promega). Luminescence was recorded using the Infinite M1000Pro plate reader using integration time of 250 milliseconds (Tecan).

MYB:CBP complex = molecular target: T3, MYB:CBP complex (Homo sapiens, UniProt Q92793); experiment: Dissociation of MYB:CBP complex in AML cells (co-immunoprecipitation); assay type: cell-based
T3 construct: endogenous in cells; host or cells: MV411 human AML cells
T3 sequence (Q92793 2-2442 limits assumed, one chain of several): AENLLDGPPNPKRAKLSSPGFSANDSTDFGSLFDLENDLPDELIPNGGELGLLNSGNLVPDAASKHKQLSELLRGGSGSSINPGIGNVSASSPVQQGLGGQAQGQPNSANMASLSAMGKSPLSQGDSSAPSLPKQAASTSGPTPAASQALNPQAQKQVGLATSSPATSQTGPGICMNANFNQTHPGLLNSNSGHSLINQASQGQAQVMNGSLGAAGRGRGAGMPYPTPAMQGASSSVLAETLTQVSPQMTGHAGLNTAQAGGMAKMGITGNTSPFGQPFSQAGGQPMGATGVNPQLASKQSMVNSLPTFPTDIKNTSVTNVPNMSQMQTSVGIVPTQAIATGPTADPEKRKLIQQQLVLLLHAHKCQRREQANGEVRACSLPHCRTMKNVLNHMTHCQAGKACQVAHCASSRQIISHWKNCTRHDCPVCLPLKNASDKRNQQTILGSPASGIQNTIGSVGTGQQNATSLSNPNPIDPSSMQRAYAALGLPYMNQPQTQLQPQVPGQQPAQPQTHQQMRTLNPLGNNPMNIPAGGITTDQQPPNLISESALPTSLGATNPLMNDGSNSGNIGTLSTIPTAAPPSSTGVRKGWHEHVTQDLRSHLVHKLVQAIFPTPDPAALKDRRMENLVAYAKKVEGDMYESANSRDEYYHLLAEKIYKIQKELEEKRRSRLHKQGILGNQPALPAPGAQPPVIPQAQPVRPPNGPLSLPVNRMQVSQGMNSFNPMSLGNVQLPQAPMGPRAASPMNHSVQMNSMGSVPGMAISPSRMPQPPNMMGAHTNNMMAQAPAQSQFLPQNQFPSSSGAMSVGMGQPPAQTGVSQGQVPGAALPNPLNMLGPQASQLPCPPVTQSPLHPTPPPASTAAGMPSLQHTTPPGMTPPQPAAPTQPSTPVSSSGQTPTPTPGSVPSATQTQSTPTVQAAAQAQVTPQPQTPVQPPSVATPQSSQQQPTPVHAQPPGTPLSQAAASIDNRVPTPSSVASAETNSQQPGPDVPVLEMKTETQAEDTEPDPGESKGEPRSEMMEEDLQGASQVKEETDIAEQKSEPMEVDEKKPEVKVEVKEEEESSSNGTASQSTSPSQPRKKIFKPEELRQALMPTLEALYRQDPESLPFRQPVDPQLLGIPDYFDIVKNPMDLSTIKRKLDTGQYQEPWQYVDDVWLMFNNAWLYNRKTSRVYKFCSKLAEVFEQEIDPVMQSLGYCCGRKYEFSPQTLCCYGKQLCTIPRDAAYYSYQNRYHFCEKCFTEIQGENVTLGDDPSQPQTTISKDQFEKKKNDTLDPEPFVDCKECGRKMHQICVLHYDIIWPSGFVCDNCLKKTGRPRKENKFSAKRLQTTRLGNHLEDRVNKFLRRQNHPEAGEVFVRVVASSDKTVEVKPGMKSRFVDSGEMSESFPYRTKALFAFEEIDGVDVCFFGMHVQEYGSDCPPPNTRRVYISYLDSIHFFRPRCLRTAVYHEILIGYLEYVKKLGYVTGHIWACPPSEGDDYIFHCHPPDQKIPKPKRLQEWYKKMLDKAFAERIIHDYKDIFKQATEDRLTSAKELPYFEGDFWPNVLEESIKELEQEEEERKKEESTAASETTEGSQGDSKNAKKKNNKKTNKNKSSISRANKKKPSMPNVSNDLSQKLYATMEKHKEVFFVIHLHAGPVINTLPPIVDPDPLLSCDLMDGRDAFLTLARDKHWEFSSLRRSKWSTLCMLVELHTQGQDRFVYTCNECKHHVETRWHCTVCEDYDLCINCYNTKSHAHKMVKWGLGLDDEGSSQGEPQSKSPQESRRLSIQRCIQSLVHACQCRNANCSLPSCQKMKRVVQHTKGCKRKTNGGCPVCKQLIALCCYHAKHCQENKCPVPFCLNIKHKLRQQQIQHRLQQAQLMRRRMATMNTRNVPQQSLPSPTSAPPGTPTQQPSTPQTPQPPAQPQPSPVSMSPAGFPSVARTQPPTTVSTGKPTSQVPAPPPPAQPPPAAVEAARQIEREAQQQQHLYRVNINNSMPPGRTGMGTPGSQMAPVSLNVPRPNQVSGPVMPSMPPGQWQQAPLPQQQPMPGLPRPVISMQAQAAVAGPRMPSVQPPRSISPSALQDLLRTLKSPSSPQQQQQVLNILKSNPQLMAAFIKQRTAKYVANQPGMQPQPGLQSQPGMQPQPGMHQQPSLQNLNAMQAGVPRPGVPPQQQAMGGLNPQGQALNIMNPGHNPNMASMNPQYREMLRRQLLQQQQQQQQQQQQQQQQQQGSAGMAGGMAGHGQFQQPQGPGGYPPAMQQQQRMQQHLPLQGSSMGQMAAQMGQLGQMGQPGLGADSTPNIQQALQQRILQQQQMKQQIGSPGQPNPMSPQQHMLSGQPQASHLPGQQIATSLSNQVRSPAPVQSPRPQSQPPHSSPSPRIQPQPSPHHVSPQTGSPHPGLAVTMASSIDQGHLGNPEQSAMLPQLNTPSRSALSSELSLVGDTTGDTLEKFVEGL
Experimental: Co-immunoprecipitation analysis. 7.5 μg of indicated antibodies were conjugated to 1 mg M-270 Epoxy-coated magnetic beads (Invitrogen) according to manufacturer's instructions. 1×10^7 MV411 cells were collected and washed in cold PBS. Washed cell pellets were resuspended in 350 μL cold lysis buffer (50 mM Tris-HCl pH 7.4, 150 mM NaCl, 1 mM EDTA, 1 mM DTT, 0.5% Triton X-100, supplemented with protease inhibitors described above) and incubated on ice for 10 min. Cells were mechanically disrupted using the Covaris […] adaptive focused sonicator at 50 W peak power, 10% duty cycle, 200 cycles per burst at 4° C. for 300 sec. Lysate was clarified by centrifugation for 15 min at 18,000×g at 4° C. Supernatant (cleared lysate) was diluted in 1.05 mL dilution buffer (50 mM Tris-HCl, 150 mM NaCl, 1 mM EDTA, 1 mM DTT, 10% glycerol, supplemented with protease inhibitors described above for a total volume of 1.4 mL. Diluted lysate was added to 1 mg beads, and immunoprecipitation proceeded for 3 h at 4° C. with rotation. Beads were then washed with lysis buffer twice. Proteins were eluted in 20 μL EB buffer (Invitrogen) for 5 min at room temperature, and eluate was neutralized with 2 μL 1M Tris pH 11. Samples were prepared for Western blot by addition of Laemmli buffer with 50 mM DTT and incubation at 95° C. for 5 min. Presence of MYB and CBP was identified by Western blot as described above.

Biotin-YGRKKRRQRRRGGKRIKELELLLMSTENELK-NH2 [BIOMYB]
binding to / pull-down of CBP [1]: able to pull down CBP; also recorded: specific binding

FITC-AHA-YGRKKRRQRRR-NH2 [FITC-TAT]
KD (apparent binding affinity to purified KIX) (purified CBP-KIX domain): no interaction seen
intranuclear penetration (FITC-Hoechst overlay) (MOLM13 cells): overlap of FITC and Hoechst in the nucleus
intranuclear penetration (FITC-Hoechst overlay) (MOLM13 cells; listed as SEQ ID NO:6): intranuclear penetration

[Ac]-KLGNETSMGLLELEKIGKGG-RRRQRRKKRGY-[NH2] [TG3, reference compound]
AML cell death (live cells on Day 6) [2]: inactive
MYB:CBP complex in cells (MYB:CBP complex): inactive

acetyl-KLENETSMLLLELEKIRKGGRRRQRRKKRGYK-biotin-NH2 [RI-BIOMYB]
binding to / pull-down of CBP [1]: specific binding
